Assay results reported in patent publication US20260042764A1, “COMPOSITIONS AND METHODS FOR INHIBITION OF KRAS” (TheRas, Inc., priority 2022, published 2026).

What was measured:
[1] = test system: SW620 cells (KRAS G12V); test: Cell-based pERK HTRF assay in SW620 cell (Biological Example 4); settings: Homo sapiens, SW-620, SW620 (KRAS G12V) cells, pERK HTRF
Procedure, shortened: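 SW620 cells were treated for 4 h with compound in a 9-point half-log series from 1 μM top (0.25% DMSO), then lysed. Phospho-ERK was detected by HTRF with d2 and Eu cryptate antibodies after 4–24 h at room temperature, read at 615 nm emission.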

[2] = biological target: T1, Avi-KRAS WT (1-169) GppNHp/RAF1 RBD-3xFLAG (52-151) (Homo sapiens, UniProt P01116); test: Raf1-KRAS WT-GppNHP disruption HTRF assay (Biological Example 1); format: binding; settings: KRAS WT, GppNHp-loaded; Table 11
T1 construct: Avi-KRAS WT (1-169)
Procedure, shortened: (§1)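 Measured with a KRAS/RAF1 HTRF assay at pH 7.5 in 10% DMSO, with two 1 h room-temperature incubations with shaking.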

[3] = biological target: T2, Avi-KRAS G12D (1-169) GppNHp/RAF1 RBD-3xFLAG (52-151) (Homo sapiens, UniProt P01116, G12D); test: Raf1-KRAS G12D-GppNHP disruption HTRF assay (Biological Example 1); format: binding; settings: KRAS G12D, GppNHp-loaded; Table 11
T2 construct: Avi-KRAS G12D (1-169)
Procedure, shortened: as §1

[4] = biological target: T3, Avi-KRAS G12V (1-169) GppNHp/RAF1 RBD-3xFLAG (52-151) (Homo sapiens, UniProt P01116, G12V); test: Raf1-KRAS G12V-GppNHP disruption HTRF assay (Biological Example 1); format: binding; settings: KRAS G12V, GppNHp-loaded; Table 11
T3 construct: Avi-KRAS G12V (1-169)
Procedure, shortened: as §1

[5] = test system: GP2d cells (KRAS G12D); test: Cell-based pERK HTRF assay in GP2d cell (Biological Example 2); settings: GP2d, GP2d (KRAS G12D) cells, pERK HTRF
Procedure, shortened: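 Phospho-ERK in lysed cells was detected by HTRF using Eu cryptate and d2 antibodies, read between 4 and 24 h at room temperature. Prior to lysis, KRAS G12D GP2d cells, seeded the day before in DMEM with 10% FBS, were exposed to compounds for 60 min. Compounds were tested as 9-point half-log curves from 1 μM or 100 nM top, with 0.25% DMSO.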

[6] = biological target: T4, Avi-KRAS G12R (1-169) GppNHp/RAF1 RBD-3xFLAG (52-151) (Homo sapiens, UniProt P01116, G12R); test: Raf1-KRAS G12R-GppNHP disruption HTRF assay (Biological Example 1); format: binding; settings: KRAS G12R, GppNHp-loaded; Table 11
T4 construct: Avi-KRAS G12R (1-169)
Procedure, shortened: as §1

T4 sequence (P01116 1-169 isoform P01116-2 G12R): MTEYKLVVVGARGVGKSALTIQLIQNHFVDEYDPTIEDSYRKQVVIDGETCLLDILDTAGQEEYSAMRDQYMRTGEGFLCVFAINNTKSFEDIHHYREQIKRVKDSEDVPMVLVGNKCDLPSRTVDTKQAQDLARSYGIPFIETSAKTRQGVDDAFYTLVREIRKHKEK
T1 sequence (P01116 1-169 isoform P01116-2): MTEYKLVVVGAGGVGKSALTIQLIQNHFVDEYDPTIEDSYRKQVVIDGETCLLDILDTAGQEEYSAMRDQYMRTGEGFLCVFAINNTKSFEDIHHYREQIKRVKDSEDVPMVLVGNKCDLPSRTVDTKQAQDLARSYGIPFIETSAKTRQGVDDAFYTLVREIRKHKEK
T2 sequence (P01116 1-169 isoform P01116-2 G12D): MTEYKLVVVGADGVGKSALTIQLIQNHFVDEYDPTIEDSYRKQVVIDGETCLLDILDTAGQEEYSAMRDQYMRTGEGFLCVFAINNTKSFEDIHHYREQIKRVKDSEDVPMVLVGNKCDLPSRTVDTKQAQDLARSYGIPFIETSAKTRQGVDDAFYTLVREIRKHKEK
T3 sequence (P01116 1-169 isoform P01116-2 G12V): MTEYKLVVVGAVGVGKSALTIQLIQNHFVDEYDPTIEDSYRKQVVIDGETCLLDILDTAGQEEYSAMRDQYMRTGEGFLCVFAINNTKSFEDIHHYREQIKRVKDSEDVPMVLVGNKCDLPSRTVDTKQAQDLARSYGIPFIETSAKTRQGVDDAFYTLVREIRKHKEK

Row | Compound | IC50 [1] [nM] | IC50 [2] [nM] | IC50 [3] [nM] | IC50 [4] [nM] | IC50 [5] [nM] | IC50 [6] [nM]
1 | C[C@@H]1COC[C@H](C)N1c1nc(OC[C@@]23CCCN2C[C@H](F)C3)nc2c(F)c(-c3ccc(F)c4sc(N)c(C#N)c34)c(C(F)(F)F)cc12 [Compound 201] | < 100 | 100 to 1000 | 100 to 1000 | 100 to 1000 | < 100 | 100 to 1000
2 | N#Cc1c(N)sc2c(F)ccc(-c3c(C(F)(F)F)cc4c(N5C6COCC5C6)nc(OC[C@@]56CCCN5C[C@H](F)C6)nc4c3F)c12 [Compound 202] | < 100 | 100 to 1000 | 100 to 1000 | 100 to 1000 | < 100 | 100 to 1000
3 | N#Cc1c(N)sc2c(F)ccc(-c3c(C(F)(F)F)cc4c(N5CCCCC5)nc(OC[C@@]56CCCN5C[C@H](F)C6)nc4c3F)c12 [Compound 203] | < 100 | 100 to 1000 | 100 to 1000 | 1000 to 10000 | < 100 | 100 to 1000
4 | N#Cc1c(N)sc2c(F)ccc(-c3c(C(F)(F)F)cc4c(N5CC6(CC6)C5)nc(OC[C@@]56CCCN5C[C@H](F)C6)nc4c3F)c12 [Compound 204] | 100 to 1000 | 1000 to 10000 | 1000 to 10000 | 1000 to 10000 | 100 to 1000 | 1000 to 10000
5 | N#Cc1c(N)sc2c(F)ccc(-c3c(C(F)(F)F)cc4c(N5CC(F)(F)C5)nc(OC[C@@]56CCCN5C[C@H](F)C6)nc4c3F)c12 [Compound 205] | < 100 | 100 to 1000 | 100 to 1000 | 100 to 1000 | < 100 | 100 to 1000
6 | CC(=O)N(C)[C@H]1CCN(c2nc(OC[C@@]34CCCN3C[C@H](F)C4)nc3c(F)c(-c4ccc(F)c5sc(N)c(C#N)c45)c(C(F)(F)F)cc23)C1 [Compound 206] | 100 to 1000 | 1000 to 10000 | 1000 to 10000 | 1000 to 10000 | 100 to 1000 | 1000 to 10000
7 | CC(=O)N(C)[C@@H]1CCN(c2nc(OC[C@@]34CCCN3C[C@H](F)C4)nc3c(F)c(-c4ccc(F)c5sc(N)c(C#N)c45)c(C(F)(F)F)cc23)C1 [Compound 207] | 100 to 1000 | 100 to 1000 | 100 to 1000 | 100 to 1000 | < 100 | 100 to 1000
8 | CN(C)C(=O)CN(C)c1nc(OC[C@@]23CCCN2C[C@H](F)C3)nc2c(F)c(-c3ccc(F)c4sc(N)c(C#N)c34)c(C(F)(F)F)cc12 [Compound 208] | 100 to 1000 | 100 to 1000 | 100 to 1000 | 100 to 1000 | < 100 | 1000 to 10000
9 | CNC(=O)CN(C)c1nc(OC[C@@]23CCCN2C[C@H](F)C3)nc2c(F)c(-c3ccc(F)c4sc(N)c(C#N)c34)c(C(F)(F)F)cc12 [Compound 209] | 100 to 1000 | 100 to 1000 | 100 to 1000 | 100 to 1000 | < 100 | 100 to 1000
10 | CC(=O)N1C[C@H]2CCN(c3nc(OC[C@@]45CCCN4C[C@H](F)C5)nc4c(F)c(-c5ccc(F)c6sc(N)c(C#N)c56)c(C(F)(F)F)cc34)[C@H]2C1 [Compound 210] | 100 to 1000 | 100 to 1000 | 1000 to 10000 | 100 to 1000 | < 100 | 1000 to 10000
11 | CC(=O)N1C[C@@H]2CCN(c3nc(OC[C@@]45CCCN4C[C@H](F)C5)nc4c(F)c(-c5ccc(F)c6sc(N)c(C#N)c56)c(C(F)(F)F)cc34)[C@@H]2C1 [Compound 211] | 100 to 1000 | 100 to 1000 | 100 to 1000 | 1000 to 10000 | < 100 | 1000 to 10000
12 | N#Cc1c(N)sc2c(F)ccc(-c3c(C(F)(F)F)cc4c(N5CCC5)nc(OC[C@@]56CCCN5C[C@H](F)C6)nc4c3F)c12 [Compound 212] | < 100 | 100 to 1000 | 100 to 1000 | 100 to 1000 | < 100 | 100 to 1000
13 | N#Cc1c(N)sc2c(F)ccc(-c3c(C(F)(F)F)cc4cnc(OC[C@@]56CCCN5C[C@H](F)C6)nc4c3F)c12 [Compound 213, 2-amino-7-fluoro-4-[8-fluoro-2-[[(2R,8S)-2-fluoro-1,2,3,5,6,7-hexahydropyrrolizin-8-yl]methoxy]-6-(trifluoromethyl)quinazolin-7-yl]benzothiophene-3-carbonitrile] | < 100 | 100 to 1000 | 100 to 1000 | 100 to 1000 | < 100 | 100 to 1000
14 | N#CCC[C@H]1CCN(c2nc(OC[C@@]34CCCN3C[C@H](F)C4)nc3c(F)c(-c4ccc(F)c5sc(N)c(C#N)c45)c(C(F)(F)F)cc23)C1 [Compound 214] | 100 to 1000 | 1000 to 10000 | 1000 to 10000 | 1000 to 10000 | 100 to 1000 | 1000 to 10000
15 | N#Cc1c(N)sc2c(F)ccc(-c3c(C(F)(F)F)cc4c(N5CC(O)C5)nc(OC[C@@]56CCCN5C[C@H](F)C6)nc4c3F)c12 [Compound 215] | 100 to 1000 | 100 to 1000 | 100 to 1000 | 100 to 1000 | < 100 | 100 to 1000
16 | CN(C[C@H](F)CO)c1nc(OC[C@@]23CCCN2C[C@H](F)C3)nc2c(F)c(-c3ccc(F)c4sc(N)c(C#N)c34)c(C(F)(F)F)cc12 [Compound 216] | < 100 | 100 to 1000 | 100 to 1000 | 100 to 1000 | < 100 | 100 to 1000
17 | CN(CCS(C)(=O)=O)c1nc(OC[C@@]23CCCN2C[C@H](F)C3)nc2c(F)c(-c3ccc(F)c4sc(N)c(C#N)c34)c(C(F)(F)F)cc12 [Compound 217] | < 100 | 100 to 1000 | 100 to 1000 | 100 to 1000 | < 100 | 100 to 1000
18 | CN(C[C@@H](F)CO)c1nc(OC[C@@]23CCCN2C[C@H](F)C3)nc2c(F)c(-c3ccc(F)c4sc(N)c(C#N)c34)c(C(F)(F)F)cc12 [Compound 218] | < 100 | 100 to 1000 | 100 to 1000 | 100 to 1000 | < 100 | 100 to 1000
19 | N#Cc1c(N)sc2c(F)ccc(-c3c(C(F)(F)F)cc4c(N5CC(F)C5)nc(OC[C@@]56CCCN5C[C@H](F)C6)nc4c3F)c12 [Compound 222] | < 100 | 100 to 1000 | 100 to 1000 | 100 to 1000 | < 100 | 100 to 1000
20 | CS(=O)(=O)C1CN(c2nc(OC[C@@]34CCCN3C[C@H](F)C4)nc3c(F)c(-c4ccc(F)c5sc(N)c(C#N)c45)c(C(F)(F)F)cc23)C1 [Compound 223] | 100 to 1000 | 100 to 1000 | 100 to 1000 | 1000 to 10000 | 100 to 1000 | 1000 to 10000
